From ChEMBL document CHEMBL1777794, “Optimization of the physicochemical and pharmacokinetic attributes in a 6-azauracil series of P2X7 receptor antagonists leading to the discovery of the clinical candidate CE-224,535” (Bioorg Med Chem Lett, 2011)
One block for each molecule: values may come before it. Activity calls are given as the source filed them. No cut-off for these calls is given here.

Assays:
P2X purinoceptor 7 [1] = target: T1, P2X purinoceptor 7 (Homo sapiens, UniProt Q99572); test: Antagonist activity at P2X7 receptor in human LPS-stimulated monocytes assessed as inhibition of ATP-induced IL1-beta release by ELISA; type: functional, cell-based
T1 sequence (Q99572 whole entry): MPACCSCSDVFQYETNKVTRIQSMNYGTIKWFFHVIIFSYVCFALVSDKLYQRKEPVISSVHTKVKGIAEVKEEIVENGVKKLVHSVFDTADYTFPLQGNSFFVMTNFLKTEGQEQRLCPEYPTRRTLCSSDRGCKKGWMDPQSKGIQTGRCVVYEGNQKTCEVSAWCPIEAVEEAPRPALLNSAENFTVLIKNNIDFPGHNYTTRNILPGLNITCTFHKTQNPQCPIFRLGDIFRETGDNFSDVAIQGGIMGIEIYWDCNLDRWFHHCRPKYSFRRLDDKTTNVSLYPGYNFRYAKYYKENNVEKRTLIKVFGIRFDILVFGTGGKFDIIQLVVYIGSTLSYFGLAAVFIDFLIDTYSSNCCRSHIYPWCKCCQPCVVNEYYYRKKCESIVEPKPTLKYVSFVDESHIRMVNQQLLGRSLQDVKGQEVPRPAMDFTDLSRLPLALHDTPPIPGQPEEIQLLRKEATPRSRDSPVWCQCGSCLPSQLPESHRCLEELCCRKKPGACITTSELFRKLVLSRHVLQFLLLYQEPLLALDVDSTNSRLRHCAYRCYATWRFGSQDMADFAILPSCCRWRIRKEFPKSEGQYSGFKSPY

[2] = target: T2, P2X purinoceptor 7 (Homo sapiens) (UniProt Q99572); test: Antagonist activity at P2X7 receptor in human LPS-stimulated monocytes assessed as inhibition of ATP-induced IL1-beta release at 5 uM by ELISA; type: functional, cell-based
T2 sequence (whole entry): T1 sequence (Q99572 whole entry)

P2X purinoceptor 7 [3] = target: T1, P2X purinoceptor 7; test: (§1) Antagonist activity at P2X7 receptor in human LPS-stimulated monocytes assessed as inhibition of ATP-induced IL1-beta release by ELISA in presence of human blood; type: functional, cell-based
P2X purinoceptor 7 [4] = target: T1, P2X purinoceptor 7; test: Antagonist activity at P2X7 receptor expressed in HEK293 cells assessed as inhibition of ATP-induced YOPRO-1 uptake; type: functional, cell-based
[5] = target: T2, P2X purinoceptor 7 (Homo sapiens); test: as §1; type: functional, cell-based
[6] = Plasma protein binding in human; type: ADME, cell-free; conditions: read-out: PPB
Liver microsomes = test: Metabolic stability in human liver microsomes assessed as compound turnover; type: ADME, Microsome
Hepatocyte = test: Metabolic stability in human hepatocytes assessed as compound turnover; type: ADME, cell-based
[7] = Apparent permeability from apical to basolateral side of human Caco2 cells; type: ADME, cell-based; conditions: Caco-2
[8] = Apparent permeability from basolateral to apical side of human Caco2 cells; type: ADME, cell-based; conditions: Caco-2
Plasma = test: (§2) Fraction unbound in human plasma; type: ADME, cell-free
[9] = Cmax in rat at 5 mg/kg, po; type: ADME, organism-based; set-up: dose 5 mg/kg, route oral; conditions: in vivo
in vivo = conditions: rat, plasma
[10] = as §2; type: ADME, cell-free
[11] = Volume of distribution at steady state in rat; type: ADME, organism-based; conditions: in vivo, read-out: Vdss
[12] = Half life in rat; type: ADME, organism-based; conditions: in vivo
[13] = Oral bioavailability in rat at 5 mg/kg; type: ADME, organism-based; conditions: in vivo
[14] = Volume of distribution at steady state in dog; type: ADME, organism-based, Canis lupus familiaris; conditions: in vivo, read-out: Vdss
[15] = Half life in dog; type: ADME, organism-based, Canis lupus familiaris; conditions: in vivo
[16] = Cmax in dog; type: ADME, organism-based, Canis lupus familiaris; conditions: in vivo
[17] = Oral bioavailability in dog; type: ADME, organism-based, Canis lupus familiaris; conditions: in vivo
[18] = Volume of distribution at steady state in monkey; type: ADME, organism-based, Macaca mulatta; conditions: rhesus monkey, in vivo; read-out: Vdss
[19] = Half life in monkey; type: ADME, organism-based, Macaca mulatta; conditions: rhesus monkey, in vivo
[20] = Cmax in monkey; type: ADME, organism-based, Macaca mulatta; conditions: rhesus monkey, in vivo
[21] = Oral bioavailability in monkey; type: ADME, organism-based, Macaca mulatta; conditions: rhesus monkey, in vivo
Cytochrome P450 1A2 = target: T3, Cytochrome P450 1A2 (Homo sapiens, UniProt P05177); test: Inhibition of human CYP1A2; type: ADME
T3 sequence (P05177 whole entry): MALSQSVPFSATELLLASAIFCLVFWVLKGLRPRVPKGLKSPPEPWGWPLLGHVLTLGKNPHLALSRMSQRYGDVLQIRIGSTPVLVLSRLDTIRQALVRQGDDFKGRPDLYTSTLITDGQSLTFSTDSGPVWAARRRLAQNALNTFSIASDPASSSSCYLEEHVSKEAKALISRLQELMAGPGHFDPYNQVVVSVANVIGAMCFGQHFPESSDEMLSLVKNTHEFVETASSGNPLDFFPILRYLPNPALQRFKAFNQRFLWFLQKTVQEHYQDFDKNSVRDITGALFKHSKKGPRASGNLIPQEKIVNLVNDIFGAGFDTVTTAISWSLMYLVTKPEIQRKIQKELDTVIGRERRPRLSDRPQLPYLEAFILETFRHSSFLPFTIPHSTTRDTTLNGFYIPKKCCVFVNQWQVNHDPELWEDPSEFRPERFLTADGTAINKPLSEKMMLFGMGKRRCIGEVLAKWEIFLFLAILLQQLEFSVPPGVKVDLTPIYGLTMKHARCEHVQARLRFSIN

Cytochrome P450 2C19 = Cytochrome P450 2C19 (Homo sapiens, UniProt P33261); test: Inhibition of human CYP2C19; type: ADME
Cytochrome P450 2C9 = Cytochrome P450 2C9 (Homo sapiens, UniProt P11712); test: Inhibition of human CYP2C9; type: ADME
Cytochrome P450 2D6 = Cytochrome P450 2D6 (Homo sapiens, UniProt P10635); test: Inhibition of human CYP2D6; type: ADME
Cytochrome P450 3A4 = Cytochrome P450 3A4 (Homo sapiens, UniProt P08684); test: Inhibition of human CYP3A4; type: ADME
Salmonella typhimurium = test: Mutagenic activity in Salmonella Typhimurium by Ames assay; type: toxicity, organism-based; conditions: salmonella enterica subsp. enterica serovar typhimurium
[22] = target: Voltage-gated inwardly rectifying potassium channel KCNH2 (Homo sapiens, UniProt Q12809); test: Inhibition of human ERG at 1 uM
Rattus norvegicus = test: Toxicity in rat at 500 mg/kg, po qd for 4 days; type: organism-based; set-up: dose 500 mg/kg, route oral; conditions: in vivo, 96 h
[23] = target: T4, P2X purinoceptor 7 (Mus musculus) (UniProt Q9Z1M0); test: Antagonist activity at P2X7 receptor in mouse LPS-stimulated peritoneal macrophages assessed as inhibition of ATP-induced IL1-beta release at 10 uM by ELISA; type: functional
T4 sequence (whole entry): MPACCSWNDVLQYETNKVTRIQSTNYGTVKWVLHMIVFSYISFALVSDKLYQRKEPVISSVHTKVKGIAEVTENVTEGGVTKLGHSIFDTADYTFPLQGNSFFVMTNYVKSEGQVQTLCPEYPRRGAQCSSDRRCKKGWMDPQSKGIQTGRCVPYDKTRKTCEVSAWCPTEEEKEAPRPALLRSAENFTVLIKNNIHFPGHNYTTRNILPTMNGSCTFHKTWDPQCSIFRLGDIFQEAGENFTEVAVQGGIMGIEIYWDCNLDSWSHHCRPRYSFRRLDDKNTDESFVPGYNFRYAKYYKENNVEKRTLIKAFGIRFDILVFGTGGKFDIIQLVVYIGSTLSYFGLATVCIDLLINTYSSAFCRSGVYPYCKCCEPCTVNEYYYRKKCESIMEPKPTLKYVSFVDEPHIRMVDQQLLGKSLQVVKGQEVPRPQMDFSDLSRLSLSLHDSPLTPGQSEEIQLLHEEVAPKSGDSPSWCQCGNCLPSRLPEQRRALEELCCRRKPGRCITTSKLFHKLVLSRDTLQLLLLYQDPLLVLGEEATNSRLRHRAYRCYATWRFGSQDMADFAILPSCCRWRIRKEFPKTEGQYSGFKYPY

[24] = Trough plasma concentration in rheumatoid arthritis patient at 500 mg BID for 12 weeks; type: ADME; conditions: human, read-out: Cmin
[25] = target: T2, P2X purinoceptor 7 (Homo sapiens); test: Antagonist activity at P2X7 receptor in human monocytes assessed as inhibition of LPS/ATP-induced IL1-beta release at 1 uM by ELISA; type: functional, cell-based

Sequence of Cytochrome P450 2C19 (P33261 whole entry): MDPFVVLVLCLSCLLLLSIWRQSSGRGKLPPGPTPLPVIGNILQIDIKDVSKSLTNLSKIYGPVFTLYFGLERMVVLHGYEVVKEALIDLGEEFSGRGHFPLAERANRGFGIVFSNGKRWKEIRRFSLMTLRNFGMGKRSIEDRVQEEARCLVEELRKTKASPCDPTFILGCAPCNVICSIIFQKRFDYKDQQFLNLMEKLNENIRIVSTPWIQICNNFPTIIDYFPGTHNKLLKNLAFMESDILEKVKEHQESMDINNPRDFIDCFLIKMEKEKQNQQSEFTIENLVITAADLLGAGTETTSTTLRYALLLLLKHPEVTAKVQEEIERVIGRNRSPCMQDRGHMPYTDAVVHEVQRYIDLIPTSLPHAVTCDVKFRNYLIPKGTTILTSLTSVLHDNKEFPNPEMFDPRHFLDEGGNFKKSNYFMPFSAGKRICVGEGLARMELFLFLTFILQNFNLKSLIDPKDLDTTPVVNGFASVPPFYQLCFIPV
Sequence of Cytochrome P450 2C9 (P11712 whole entry): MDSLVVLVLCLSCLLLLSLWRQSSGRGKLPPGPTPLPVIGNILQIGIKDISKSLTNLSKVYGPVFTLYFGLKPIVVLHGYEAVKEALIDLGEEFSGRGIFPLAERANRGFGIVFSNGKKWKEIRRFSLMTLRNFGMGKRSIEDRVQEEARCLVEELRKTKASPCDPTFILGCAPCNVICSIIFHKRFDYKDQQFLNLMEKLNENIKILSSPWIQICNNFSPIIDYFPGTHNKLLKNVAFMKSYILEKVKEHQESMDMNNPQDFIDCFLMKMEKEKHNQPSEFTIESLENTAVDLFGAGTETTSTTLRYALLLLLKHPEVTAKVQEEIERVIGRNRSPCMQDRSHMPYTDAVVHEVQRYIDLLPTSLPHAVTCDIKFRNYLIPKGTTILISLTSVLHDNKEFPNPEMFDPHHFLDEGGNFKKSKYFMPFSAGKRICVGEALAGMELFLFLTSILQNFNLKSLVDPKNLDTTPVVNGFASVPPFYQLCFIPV
Sequence of Voltage-gated inwardly rectifying potassium channel KCNH2 (Q12809 whole entry): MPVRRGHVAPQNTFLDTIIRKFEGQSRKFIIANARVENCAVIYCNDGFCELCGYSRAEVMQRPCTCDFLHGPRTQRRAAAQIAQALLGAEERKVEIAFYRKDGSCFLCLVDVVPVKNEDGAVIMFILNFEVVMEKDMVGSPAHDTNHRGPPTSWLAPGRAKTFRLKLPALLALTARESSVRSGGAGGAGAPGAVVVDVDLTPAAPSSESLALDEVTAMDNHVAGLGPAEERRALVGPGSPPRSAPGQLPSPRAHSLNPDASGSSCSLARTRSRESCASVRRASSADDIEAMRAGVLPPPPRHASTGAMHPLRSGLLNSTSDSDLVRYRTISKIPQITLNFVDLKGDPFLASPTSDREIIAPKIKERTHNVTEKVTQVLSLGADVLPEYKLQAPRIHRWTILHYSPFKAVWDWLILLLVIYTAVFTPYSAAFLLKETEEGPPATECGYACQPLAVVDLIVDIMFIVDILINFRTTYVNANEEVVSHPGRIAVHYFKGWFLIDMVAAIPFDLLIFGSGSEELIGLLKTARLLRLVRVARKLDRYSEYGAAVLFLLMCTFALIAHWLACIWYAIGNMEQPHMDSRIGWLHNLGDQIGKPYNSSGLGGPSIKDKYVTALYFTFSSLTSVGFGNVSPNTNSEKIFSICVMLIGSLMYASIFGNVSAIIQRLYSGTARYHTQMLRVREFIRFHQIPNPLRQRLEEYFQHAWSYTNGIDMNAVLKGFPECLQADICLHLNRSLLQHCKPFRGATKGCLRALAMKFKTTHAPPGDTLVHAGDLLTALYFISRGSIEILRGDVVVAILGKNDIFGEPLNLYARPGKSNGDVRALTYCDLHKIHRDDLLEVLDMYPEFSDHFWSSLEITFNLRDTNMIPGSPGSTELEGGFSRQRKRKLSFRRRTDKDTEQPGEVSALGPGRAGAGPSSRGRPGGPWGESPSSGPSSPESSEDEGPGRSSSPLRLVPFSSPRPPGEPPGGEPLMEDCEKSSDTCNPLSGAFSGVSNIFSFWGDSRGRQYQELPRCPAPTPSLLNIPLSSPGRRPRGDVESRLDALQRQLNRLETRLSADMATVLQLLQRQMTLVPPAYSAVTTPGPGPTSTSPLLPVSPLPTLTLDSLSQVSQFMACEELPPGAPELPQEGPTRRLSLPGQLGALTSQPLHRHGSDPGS
Sequence of Cytochrome P450 3A4 (P08684 whole entry): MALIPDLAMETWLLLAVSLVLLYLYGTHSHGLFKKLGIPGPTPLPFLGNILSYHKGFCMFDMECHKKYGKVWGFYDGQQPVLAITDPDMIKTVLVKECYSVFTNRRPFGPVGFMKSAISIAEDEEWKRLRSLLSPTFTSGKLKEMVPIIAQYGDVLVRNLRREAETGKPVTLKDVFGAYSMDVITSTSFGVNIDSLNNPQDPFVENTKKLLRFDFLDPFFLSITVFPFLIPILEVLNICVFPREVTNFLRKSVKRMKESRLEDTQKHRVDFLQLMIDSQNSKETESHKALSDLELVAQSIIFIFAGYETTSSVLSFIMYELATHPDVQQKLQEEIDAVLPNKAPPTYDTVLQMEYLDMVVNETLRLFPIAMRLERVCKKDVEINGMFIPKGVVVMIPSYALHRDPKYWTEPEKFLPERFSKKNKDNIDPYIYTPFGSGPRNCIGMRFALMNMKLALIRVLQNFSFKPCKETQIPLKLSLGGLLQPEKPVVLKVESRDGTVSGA
Sequence of Cytochrome P450 2D6 (P10635 whole entry): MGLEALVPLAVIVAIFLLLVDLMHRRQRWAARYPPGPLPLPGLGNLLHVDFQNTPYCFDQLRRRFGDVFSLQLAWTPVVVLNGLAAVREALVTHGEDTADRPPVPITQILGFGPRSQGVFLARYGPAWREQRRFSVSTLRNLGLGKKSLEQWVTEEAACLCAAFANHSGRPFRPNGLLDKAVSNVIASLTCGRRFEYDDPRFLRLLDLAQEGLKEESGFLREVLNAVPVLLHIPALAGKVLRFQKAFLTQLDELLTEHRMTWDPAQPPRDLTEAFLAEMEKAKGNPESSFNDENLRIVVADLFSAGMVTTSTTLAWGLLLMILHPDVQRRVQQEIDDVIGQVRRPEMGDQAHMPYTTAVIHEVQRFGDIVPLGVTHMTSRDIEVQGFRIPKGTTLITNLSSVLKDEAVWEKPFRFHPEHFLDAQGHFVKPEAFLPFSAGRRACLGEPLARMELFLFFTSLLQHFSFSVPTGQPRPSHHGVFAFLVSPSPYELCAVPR

Structure (SMILES): CCCCC(CC)CNC(=O)c1cccc(-n2ncc(=O)[nH]c2=O)c1 (centres undefined)
- inhibition [2]: 0%

Structure (SMILES): CC(C)Cn1c(=O)cnn(-c2ccc(Cl)c(C(=O)NCC3(O)CCCCCC3)c2)c1=O
- IC50 (P2X purinoceptor 7 [1]): 34 nM
- IC50 (P2X purinoceptor 7 [3]): 200 nM

Structure (SMILES): O=C(NCCc1ccncc1)c1cc(-n2ncc(=O)[nH]c2=O)ccc1Cl
- inhibition [2]: 22%

Structure (SMILES): O=C(NCC1CCCCC1)c1cc(-n2ncc(=O)[nH]c2=O)ccc1Cl
- IC50 (P2X purinoceptor 7 [1]): 1300 nM

Structure (SMILES): CCCCC(CC)CN(C)C(=O)c1cc(-n2ncc(=O)[nH]c2=O)ccc1Cl (centres undefined)
- inhibition [2]: 0%

Structure (SMILES): CCn1c(=O)cnn(-c2ccc(Cl)c(C(=O)NCC3(O)CCCCCC3)c2)c1=O
- IC50 (P2X purinoceptor 7 [1]): 86 nM
- IC50 (P2X purinoceptor 7 [3]): 185 nM

Structure (SMILES): O=C(NCC1CCCC1)c1cc(-n2ncc(=O)[nH]c2=O)ccc1Cl
- inhibition [2]: 0%

Continued, in another order:

- IC50 (P2X purinoceptor 7 [1]): 3600 nM
Structure (SMILES): CCCCCCNC(=O)c1cc(-n2ncc(=O)[nH]c2=O)ccc1Cl

- IC50 (P2X purinoceptor 7 [4]): 300 nM
- IC50 (P2X purinoceptor 7 [1]): 290 nM
- IC90 [5]: > 10000 nM
- IC50 (P2X purinoceptor 7 [3]): > 10000 nM
- fraction unbound [6]: < 0.005
- Stability (Liver microsomes): Stable
- Stability (Hepatocyte): Stable
- Papp A→B [7]: 10 ×10⁻⁶ cm/s
- Papp B→A [8]: 21 ×10⁻⁶ cm/s
- Fu (Plasma): 0.005
- Cmax [9]: 2000 ng/mL
- clearance (in vivo): 9.5 mL/min/kg
Structure (SMILES): O=C(NCCc1ccccc1Cl)c1cc(-n2ncc(=O)[nH]c2=O)ccc1Cl

- inhibition [2]: 15%
Structure (SMILES): O=C(NCCc1ccccn1)c1cc(-n2ncc(=O)[nH]c2=O)ccc1Cl

- IC50 (P2X purinoceptor 7 [4]): 4 nM
- IC50 (P2X purinoceptor 7 [1]): 1.4 nM
- IC90 [5]: 4.7 nM
- IC50 (P2X purinoceptor 7 [3]): 0.8 nM
- fraction unbound [10]: 0.27
- Vd [11]: 7.6 L/kg
- half-life [12]: 144 min
- Cmax [9]: 210 ng/mL
- bioavailability [13]: 2.6%
- Vd [14]: 0.61 L/kg
- half-life [15]: 27.6 min
- Cmax [16]: 3500 ng/mL
- bioavailability [17]: 59%
- Vd [18]: 0.68 L/kg
- half-life [19]: 46.2 min
- Cmax [20]: 550 ng/mL
- bioavailability [21]: 22%
- IC50 (Cytochrome P450 1A2): > 30000 nM
- IC50 (Cytochrome P450 2C19): > 30000 nM
- IC50 (Cytochrome P450 2C9): > 30000 nM
- IC50 (Cytochrome P450 2D6): > 30000 nM
- IC50 (Cytochrome P450 3A4): > 30000 nM
- inhibition [23]: Active
- concentration at 2016 h [24]: 519 nM
Structure (SMILES): COC[C@H](O)Cn1c(=O)cnn(-c2ccc(Cl)c(C(=O)NCC3(O)CCCCCC3)c2)c1=O [CE-224535]
- Activity (Salmonella typhimurium): Non-toxic
- inhibition (INH) [22]: Not Active
- Activity (Rattus norvegicus): Non-toxic

- IC50 (P2X purinoceptor 7 [1]): 940 nM
Structure (SMILES): O=C(NCCc1ccccc1)c1cc(-n2ncc(=O)[nH]c2=O)ccc1Cl

- inhibition [2]: 15%
Structure (SMILES): O=C(NCc1ccccc1)c1cc(-n2ncc(=O)[nH]c2=O)ccc1Cl

- IC50 (P2X purinoceptor 7 [1]): 42 nM
Structure (SMILES): Cn1c(=O)cnn(-c2ccc(Cl)c(C(=O)NCC3(O)CCCCCC3)c2)c1=O

- inhibition [25]: 0%
Structure (SMILES): N#Cc1ccc(-n2ncc(=O)[nH]c2=O)cc1C(=O)NCC1(O)CCCCCC1
